Assay results from ChEMBL document CHEMBL3044791, “Synthesis and Structure-Activity Relationships of Vasicine Analogues as Bronchodilatory Agents” (2005).

Key:
Tissue [1] = assay: Bronchodilatory activity in histamine-precontracted Cavia porcellus (guinea pig) trachea at 30 ug/ml; type: functional
Tissue [2] = assay: Bronchodilatory activity in acetylcholine-precontracted Cavia porcellus (guinea pig) trachea at 30 ug/ml; type: functional

Row | Structure (SMILES) | Activity (Tissue [1]) [%] | Activity (Tissue [2]) [%]
1 | CCc1nc2ccccc2c(=O)n1-c1ccc(F)cc1 | 20 | –
2 | Cn1c(=O)c2c(ncn2CCO)n(C)c1=O [ETOFYLLINE] | 40 | 40
3 | O=c1c2cc3c(cc2nc2n1CCCCC2)OCO3 | 100 | 100
4 | O=c1c2ccccc2nc2n1CCCCC2 | 100 | 100
5 | O=c1c2cc3c(cc2nc2n1CCCC2)OCO3 | 50 | 40
6 | O=C1CC(c2ccccc2)N=C2CCCCCN12 (centres undefined) | 50 | 30
7 | CCc1nc2ccccc2c(=O)n1-c1ccccc1 | 100 | –
8 | CCCc1nc2ccccc2c(=O)n1-c1ccccc1 | 50 | –
9 | Cc1nc2ccccc2c(=O)n1-c1ccccc1 | 100 | –
10 | O=c1c2ccccc2nc2n1CCC2 [DEOXYVASICINONE] | 20 | –
11 | O=C1CC(c2ccccc2)N=C2CCCCN12 (centres undefined) | 20 | –
12 | Cc1nc2ccccc2c(=O)n1-c1ccc(F)cc1 | 80 | –
13 | O=c1c2ccccc2nc2n1CCCC2 | 40 | –
14 | CCCc1nc2ccccc2c(=O)n1-c1ccc(F)cc1 | 10 | –
